Test results from patent publication US8688227B2, “Suction electrode-based medical instrument and system including the medical instrument for therapeutic electrotherapy” (Old Dominion Research Foundation, priority 2007, dated 2014).
Like-named read-outs stand apart in the source and are kept apart here.

How the values were obtained:
[1] = test system: nsPEF-exposed cells; assay: Whole-cell patch clamp of membrane conductance/resistance after nsPEF exposure; format: cell-based
Experimental: Experiments were performed in GH3 cells (a murine pituitary cell line) and HeLa cells (human epithelial cancer), both obtained from American Type Culture Collection (ATCC, Manassas, Va.) and cultured according to their recommendations. Cells were grown in 75-cm2 flasks at 37° C. with 5% CO2 in air. GH3 cells were cultured in Ham's F12K medium supplemented with 2.5% fetal bovine serum (FBS) and 15% horse serum (Atlanta Biologicals, Norcross, Ga.). HeLa cells were propagated in Eagle minimum essential medium with 10% FBS. The cultures also contained 1% L-glutamine and 1% penicillin/streptomycin (Mediatech Cellgro, Herndon, Va.). For passaging, cells were removed from the substrate with 2-3 ml of 0.25% Trypsin with 2.21 mM EGTA. The cultures were maintained in the logarithmic stage of growth and used at passages 3-15. For a passage immediately preceding the experiments, cells were grown attached to 8- or 10-nun diameter glass cover slips in 35-mm Petri dishes. The cover slips were pretreated with poly-1-lysine (Sigma-Aldrich, St. Louis, Mo.) to improve cell adherence.
These pairs were formulated to explore, in the first approximation, how different ion substitutions would affect Gm and the reversal potential (Erev) after nsPEF exposure. Two pairs (Cs/Na and Cs/Ba-TEA) were also used to explore nsPEF effects on voltage-gated Na^+ and Ca^2+ channels, respectively. In general, solution pairs from the top to the bottom of the Table 1 contain diminishing amounts and variety of monovalent ions, i.e., K and/or Na were replaced with larger cs^+, TEA^+, or NMDG^+. The contents of anions (C1 and HEPES) were kept almost constant and the same in bath and pipette solutions, except for the last pair, where most of the pipette C1 was replaced with HEPES^−. The pH of pipette and bath solutions was adjusted to 7.4 and 7.2, respectively; the ionic contents shown in Table 1 already include any extra amounts of ions added as a base or acid for pH adjustment. The osmolality of all solutions was between 290 and 320 mOsm, as measured with a freezing point microosmometer (Advanced Instruments, Inc., Norwood, Mass., USA).
Patch clamp recording: Cells on a cover slip were transferred into a glass-bottomed chamber (Warner Instruments, Hamden, Conn.) mounted on a motorized stage (Prior Scientific Inc., Rockland, Mass.) of an IX71 FluoView™ 300 confocal laser scanning microscope. […] The data from these experiments were analyzed differently (see below). […]
Once the whole-cell configuration was formed, the membrane resistance and capacitance (Rm and Cm) were measured using the Membrane Test utility of pClamp1 0 software. […] The membrane potential (MP) was measured by switching briefly from voltage to current clamp mode at I=0. […]

[2] = test system: hippocampal CA1 neurons; details: cited from earlier work
[3] = test system: liver cells; details: oxidative stress-activated NSCCs; cited from earlier work
[4] = test system: GH3 or HeLa cells; assay: PI uptake, positive control for permeabilization; format: cell-based; details: 0.03% added into the bath
Experimental: Moreover, the cells remained impermeable to PI even after extra-long trains of 200 pulses, which caused necrotic changes in cells morphology, and even when the observation period was extended to 30-60 min after the exposure.

In the case of `N.N.N.N.N.N.N.N.N.N.N.N.N.N.[Cl-].[Cl-].[Cl-].[Cl-].[Cl-].[Cl-].[O-2].[O-2].[Ru+3].[Ru+3].[Ru+4]` [ruthenium red], the “membrane conductance increase by nsPEF” value ([1]; 10 p.M in bath of K/Na pair, prior to 1 or 5 pulses) was “neither enhanced nor inhibited”, the “effect on control (sham-exposed) cells” value ([1]; 50 and 200 μM in bath of K/Na pair) was “no apparent effect” and the “condition of nsPEF-exposed cells” value ([1]; 50 and 200 μM in bath of K/Na pair, prior to 1 or 5 pulses) was “worsened the condition”. For the same compound, the “swelling and other deleterious effects of oxygen-glucose deprivation” value (shortened to “swelling and other deleterious effects”) ([2]; 1 ilM) was “reduced swelling”.
In the case of `[Cl][Gd]([Cl])[Cl]` [Gd^3+], the “number of necrotic cells” value [3] is given as “sharply decreased”, the “protective effect against nsPEF” value ([1]; 0.2 mM, first trials) is given as “no protection” and the “swelling and other deleterious effects” value ([2]; 100 AM) is given as “reduced swelling”.
For `[Cl][La]([Cl])[Cl]` [La^3+], the “swelling and other deleterious effects” value ([2]; 100 AM) is given as “reduced swelling”.
With `C[C@@H]1CC[C@@]2(OC1)O[C@H]1[C@@H](O)[C@H]3[C@@H]4CC[C@H]5C[C@@H](O[C@@H]6O[C@H](CO)[C@H](O[C@@H]7O[C@H](CO)[C@@H](O)[C@H](O[C@@H]8OC[C@@H](O)[C@H](O)[C@H]8O)[C@H]7O[C@@H]7O[C@H](CO)[C@H](O)[C@H](O[C@@H]8O[C@H](CO)[C@@H](O)[C@H](O)[C@H]8O)[C@H]7O)[C@H](O)[C@H]6O)[C@H](O)C[C@]5(C)[C@H]4CC[C@]3(C)[C@H]1[C@@H]2C` [digitonin] the “time to bright PI fluorescence after addition” value [4] was 1 to 2 min and the “permeabilization, PI fluorescence” value ([4]; PI in the medium) was “bright PI fluorescence”.
